Measured values from patent US10478389B2, “Hair-dye composition” (KAO CORPORATION, priority 2014, dated 2019).

Assay: pKa values of the azo dyes
Type: physicochemical
Details: azo dye
Experimental: Thus, in the hair dye composition of the present invention having pH (25° C.) of 7.5 to 12, almost 80% or more of these azo dyes are present in an anionic state where a proton(s) is dissociated.

pKa	SMILES
6	CSc1nsc(/N=N/c2ccc(O)c(Cl)c2)n1 [Example A-1]
6	NS(=O)(=O)c1ccc2nsc(/N=N/c3ccc(O)c(Cl)c3)c2c1 [Example A-2]
7.5	Cn1nccc1/N=N/c1ccc(O)c(Cl)c1 [Example A-3]
